# ChEMBL document CHEMBL3112491, “3-(5-)-Amino-o-diarylisoxazoles: regioselective synthesis and antitubulin activity” (2014)
# Legend:
# Assay type in all cases: functional
# HL-60(TB) = test: Growth inhibition of human HL-60(TB) cells after 48 hrs by sulforhodamine B assay; conditions: HL-60, 48 h
# SNB-19 = test: Growth inhibition of human SNB19 cells after 48 hrs by sulforhodamine B assay; conditions: SNB-19, 48 h
# SR = test: Growth inhibition of human SR cells after 48 hrs by sulforhodamine B assay
# SF-295 = test: Growth inhibition of human SF295 cells after 48 hrs by sulforhodamine B assay; conditions: SF-295, 48 h
# [1] = Growth inhibition of human OVCAR4 cells after 48 hrs by sulforhodamine B assay; conditions: OVCAR-4, 48 h
# CAKI-1 = test: Growth inhibition of human CAKI-1 cells after 48 hrs by sulforhodamine B assay; conditions: CAKI-1, 48 h
# CCRF-CEM = test: Growth inhibition of human CCRF-CEM cells after 48 hrs by sulforhodamine B assay
# NCI-H23 = test: Growth inhibition of human NCI-H23 cells after 48 hrs by sulforhodamine B assay; conditions: NCI-H23, 48 h
# SK-MEL-5 = test: Growth inhibition of human SK-MEL-5 cells after 48 hrs by sulforhodamine B assay; conditions: SK-MEL-5, 48 h
# U-251 = test: Growth inhibition of human U251 cells after 48 hrs by sulforhodamine B assay; conditions: U-251, 48 h
# NCI-H522 = test: Growth inhibition of human NCI-H522 cells after 48 hrs by sulforhodamine B assay; conditions: NCI-H522, 48 h
# [2] = Growth inhibition of human SF539 cells after 48 hrs by sulforhodamine B assay; conditions: SF-539, 48 h
# LOX IMVI = test: Growth inhibition of human LOXIMVI cells after 48 hrs by sulforhodamine B assay
# MDA-MB-435 = test: Growth inhibition of human MDA-MB-435 cells after 48 hrs by sulforhodamine B assay; conditions: MDA-MB-435, 48 h
# COLO 205 = test: Growth inhibition of human COLO205 cells after 48 hrs by sulforhodamine B assay; conditions: COLO 205, 48 h
# [3] = Growth inhibition of human OVCAR5 cells after 48 hrs by sulforhodamine B assay; conditions: OVCAR-5, 48 h
# ACHN = test: Growth inhibition of human ACHN cells after 48 hrs by sulforhodamine B assay
# NCI-H226 = test: Growth inhibition of human NCI-H226 cells after 48 hrs by sulforhodamine B assay; conditions: NCI-H226, 48 h
# NCI-H322M = test: Growth inhibition of human NCI-H322M cells after 48 hrs by sulforhodamine B assay
# SW-620 = test: Growth inhibition of human SW620 cells after 48 hrs by sulforhodamine B assay; conditions: SW-620, 48 h
# T47D = test: Growth inhibition of human T47D cells after 48 hrs by sulforhodamine B assay
# 786-0 = test: Growth inhibition of human 786-0 cells after 48 hrs by sulforhodamine B assay; conditions: 786-0, 48 h
# HOP-62 = test: Growth inhibition of human HOP62 cells after 48 hrs by sulforhodamine B assay; conditions: HOP-62, 48 h
# Paracentrotus lividus [4] = test: Antimitotic activity in sea urchin fertilized egg assessed as cleavage arrest treated at 8 to 20 mins post-fertilization measured at 2.5 to 5.5 hrs post-fertilization
# PC-3 = test: Growth inhibition of human PC3 cells after 48 hrs by sulforhodamine B assay; conditions: PC-3, 48 h
# Malme-3M = test: Growth inhibition of human MALME-3M cells after 48 hrs by sulforhodamine B assay
# OVCAR-3 = test: Growth inhibition of human OVCAR3 cells after 48 hrs by sulforhodamine B assay; conditions: OVCAR-3, 48 h
# HCT-116 = test: Growth inhibition of human HCT116 cells after 48 hrs by sulforhodamine B assay; conditions: HCT-116, 48 h
# [5] = Growth inhibition of human Hs 578T cells after 48 hrs by sulforhodamine B assay
# KM12 = test: Growth inhibition of human KM12 cells after 48 hrs by sulforhodamine B assay; conditions: KM12, 48 h
# SF-268 = test: Growth inhibition of human SF268 cells after 48 hrs by sulforhodamine B assay; conditions: SF-268, 48 h
# IGROV-1 = test: Growth inhibition of human IGROV1 cells after 48 hrs by sulforhodamine B assay; conditions: IGROV-1, 48 h
# SK-OV-3 = test: Growth inhibition of human SKOV3 cells after 48 hrs by sulforhodamine B assay; conditions: SK-OV-3, 48 h
# MDA-MB-468 = test: Growth inhibition of human MDA-MB-468 cells after 48 hrs by sulforhodamine B assay; conditions: MDA-MB-468, 48 h
# A549 = test: Growth inhibition of human A549/ATCC cells after 48 hrs by sulforhodamine B assay; conditions: A549, 48 h
# MCF7 = test: Growth inhibition of human MCF7 cells after 48 hrs by sulforhodamine B assay; conditions: MCF7, 48 h
# BT-549 = test: Growth inhibition of human BT549 cells after 48 hrs by sulforhodamine B assay; conditions: BT-549, 48 h
# [6] = Growth inhibition of human RXF393 cells after 48 hrs by sulforhodamine B assay; conditions: RXF 393, 48 h
# TK-10 = test: Growth inhibition of human TK10 cells after 48 hrs by sulforhodamine B assay; conditions: TK-10, 48 h
# [7] = Growth inhibition of human UO31 cells after 48 hrs by sulforhodamine B assay; conditions: UO-31, 48 h
# SN12C = test: Growth inhibition of human SN12C cells after 48 hrs by sulforhodamine B assay
# UACC-62 = test: Growth inhibition of human UACC62 cells after 48 hrs by sulforhodamine B assay; conditions: UACC-62, 48 h
# HCT-15 = test: Growth inhibition of human HCT15 cells after 48 hrs by sulforhodamine B assay; conditions: HCT-15, 48 h
# SK-MEL-28 = test: Growth inhibition of human SK-MEL-28 cells after 48 hrs by sulforhodamine B assay; conditions: SK-MEL-28, 48 h
# Paracentrotus lividus [8] = test: Antimitotic activity in sea urchin fertilized egg assessed as cleavage alteration treated at 8 to 20 mins post-fertilization measured at 2.5 to 5.5 hrs post-fertilization
# NCI-H460 = test: Growth inhibition of human NCI-H460 cells after 48 hrs by sulforhodamine B assay; conditions: NCI-H460, 48 h
# [9] = Growth inhibition of human EKVX cells after 48 hrs by sulforhodamine B assay
# M14 = test: Growth inhibition of human M14 cells after 48 hrs by sulforhodamine B assay; conditions: M14, 48 h
# [10] = Growth inhibition of human HOP92 cells after 48 hrs by sulforhodamine B assay; conditions: HOP-92, 48 h
# MDA-MB-231 = test: Growth inhibition of human MDA-MB-231 cells after 48 hrs by sulforhodamine B assay; conditions: MDA-MB-231, 48 h
# DU-145 = test: Growth inhibition of human DU145 cells after 48 hrs by sulforhodamine B assay; conditions: DU-145, 48 h
# Paracentrotus lividus [11] = test: Microtubule destabilizing activity in sea urchin free-swimming blastula assessed as embryo spinning treated at 9 to 10 hrs post-fertilization measured after 0.15 to 15 hrs
# A498 = test: Growth inhibition of human A498 cells after 48 hrs by sulforhodamine B assay; conditions: A498, 48 h
# [12] = Growth inhibition of human NCI-ADR-RES cells after 48 hrs by sulforhodamine B assay
# MOLT-4 = test: Growth inhibition of human MOLT4 cells after 48 hrs by sulforhodamine B assay; conditions: MOLT-4, 48 h
# SK-MEL-2 = test: Growth inhibition of human SK-MEL-2 cells after 48 hrs by sulforhodamine B assay; conditions: SK-MEL-2, 48 h
# [13] = Growth inhibition of human HCC2998 cells after 48 hrs by sulforhodamine B assay; conditions: HCC 2998, 48 h
# HT-29 = test: Growth inhibition of human HT-29 cells after 48 hrs by sulforhodamine B assay; conditions: HT-29, 48 h
# OVCAR-8 = test: Growth inhibition of human OVCAR8 cells after 48 hrs by sulforhodamine B assay; conditions: OVCAR-8, 48 h
# RPMI-8226 = test: Growth inhibition of human RPMI8226 cells after 48 hrs by sulforhodamine B assay; conditions: RPMI-8226, 48 h
smiles,measurement,setting,value
COc1ccc(-c2c(-c3cc(OC)c4c(c3)OCCO4)noc2N)cc1,GI50,HL-60(TB),10.4 nM
same,GI50,SNB-19,26.9 nM
same,GI50,SR,< 10 nM
same,GI50,SF-295,< 10 nM
same,GI50,[1],78.7 nM
same,GI50,CAKI-1,< 10 nM
same,GI50,CCRF-CEM,15.5 nM
same,GI50,NCI-H23,1.95 nM
same,GI50,SK-MEL-5,< 10 nM
same,GI50,U-251,14.8 nM
same,GI50,NCI-H522,< 10 nM
same,GI50,[2],13 nM
same,GI50,LOX IMVI,11.2 nM
same,GI50,MDA-MB-435,< 10 nM
same,GI50,COLO 205,< 10 nM
same,GI50,[3],50.5 nM
same,GI50,ACHN,12.2 nM
same,GI50,NCI-H226,27.7 nM
same,GI50,NCI-H322M,25400 nM
same,GI50,SW-620,< 10 nM
same,GI50,T47D,27.2 nM
same,GI50,786-0,14.5 nM
same,GI50,HOP-62,< 10 nM
same,EC,Paracentrotus lividus [4],0.01 µM
same,GI50,PC-3,24.8 nM
same,GI50,Malme-3M,23600 nM
same,GI50,OVCAR-3,< 10 nM
same,GI50,HCT-116,< 10 nM
same,GI50,[5],< 10 nM
same,GI50,KM12,< 10 nM
same,GI50,SF-268,30 nM
same,GI50,IGROV-1,13.6 nM
same,GI50,SK-OV-3,< 10 nM
same,GI50,MDA-MB-468,12.2 nM
same,GI50,A549,10.1 nM
same,GI50,MCF7,< 10 nM
same,GI50,BT-549,28.5 nM
same,GI50,[6],< 10 nM
same,GI50,TK-10,15.8 nM
same,GI50,[7],57.8 nM
same,GI50,SN12C,31.8 nM
same,GI50,UACC-62,< 10 nM
same,GI50,HCT-15,< 10 nM
same,GI50,SK-MEL-28,17 nM
same,EC,Paracentrotus lividus [8],0.002 µM
same,GI50,NCI-H460,< 10 nM
same,GI50,[9],35.3 nM
same,GI50,M14,< 10 nM
same,GI50,[10],446 nM
same,GI50,MDA-MB-231,73.4 nM
same,GI50,DU-145,32 nM
same,EC,Paracentrotus lividus [11],0.1 µM
same,GI50,A498,< 10 nM
same,GI50,[12],< 10 nM
same,GI50,MOLT-4,39.8 nM
same,GI50,SK-MEL-2,< 10 nM
same,GI50,[13],20.1 nM
same,GI50,HT-29,< 10 nM
same,GI50,OVCAR-8,21.5 nM
same,GI50,RPMI-8226,33.8 nM
